Patent publication US4272437A, “Antibacterial agents, and 4-thio azetidinone intermediates” (priority 1979, dated 1981)
≈ marks a conversion by molar mass, not a printed value. Where two headings read alike, the source gives them in different places.

How the values were obtained:
Str. pneumoniae A-9585 = assay: MIC, tube dilution, Streptococcus pneumoniae A9585; assay type: cell-based; conditions: Streptococcus pneumoniae, A9585, Str. pneumoniae A9585; overnight 37° C., Nutrient Broth; read-out: Minimum Inhibitory Concentration (M.I.C.)
Description: (§1) Representative compounds of the present invention were subjected to in vitro antibiotic screening against a variety of microorganisms.

Str. pyogenes A-9604 = assay: MIC, tube dilution, Streptococcus pyogenes A9604; assay type: cell-based; conditions: Streptococcus pyogenes, A9604, Str. pyogenes A9604; overnight 37° C., Nutrient Broth; read-out: Minimum Inhibitory Concentration (M.I.C.)
Description: as §1

Staph. aureus A-9537 = assay: MIC, tube dilution, Staphylococcus aureus A9537; assay type: cell-based; conditions: Staphylococcus aureus, A9537, Staph. aureus A9537; overnight 37° C., Nutrient Broth; read-out: Minimum Inhibitory Concentration (M.I.C.)
Description: as §1

[1] = tested on: Staph. aureus A-9537 and 50% serum; assay: MIC, tube dilution, Staph. aureus A9537 + 50% serum; assay type: cell-based, Staphylococcus aureus; conditions: Staphylococcus aureus, overnight 37° C., read-out: Minimum Inhibitory Concentration (M.I.C.)
Description: as §1

[2] = tested on: Staph. aureus (Pen-Res) A-9606; assay: MIC, tube dilution, Staphylococcus aureus A9606 (Pen-Res); assay type: cell-based; conditions: Staphylococcus aureus, overnight 37° C.
Description: as §1

[3] = tested on: Staph. aureus (Meth-Res) A-15097; assay: MIC, tube dilution, Staphylococcus aureus A15097 (Meth-Res); assay type: cell-based; conditions: Staphylococcus aureus, overnight 37° C.
Description: as §1

Str. faecalis A-20688 = assay: MIC, tube dilution, Streptococcus faecalis A20688; assay type: cell-based; conditions: Enterococcus faecalis, A20688, Str. faecalis A20688; overnight 37° C.; read-out: Minimum Inhibitory Concentration (M.I.C.)
Description: as §1

E. coli A-15119 = assay: MIC, tube dilution, Escherichia coli A15119; assay type: cell-based; conditions: Escherichia coli, A15119, E. coli A15119; overnight 37° C.; read-out: Minimum Inhibitory Concentration (M.I.C.)
Description: as §1

E. coli A-20341-1 = assay: MIC, tube dilution, Escherichia coli A20341-1; assay type: cell-based
Description: as §1

K. pneumoniae A-15130 = assay: MIC, tube dilution, Klebsiella pneumoniae A15130; assay type: cell-based; conditions: Klebsiella pneumoniae, A15130, K. pneumoniae A15130; overnight 37° C.; read-out: Minimum Inhibitory Concentration (M.I.C.)
Description: as §1

[4] = tested on: Klebsiella species A20468; assay: MIC, tube dilution, Klebsiella species A20468; assay type: cell-based; conditions: Klebsiella species (K. pneumoniae) A20468; overnight 37° C.; read-out: Minimum Inhibitory Concentration (M.I.C.)
Description: as §1

Pr. mirabilis A-9900 = assay: MIC, tube dilution, Proteus mirabilis A9900; assay type: cell-based; conditions: Proteus mirabilis, A9900, Proteus mirabilis A9900; overnight 37° C.; read-out: Minimum Inhibitory Concentration (M.I.C.)
Description: as §1

Pr. morganii A-15153 = assay: MIC, tube dilution, Proteus morganii A15153; assay type: cell-based; conditions: Morganella morganii, A15153, Proteus morganii A15153; overnight 37° C.; read-out: Minimum Inhibitory Concentration (M.I.C.)
Description: as §1

Ser. marcescens A-20019 = assay: MIC, tube dilution, Serratia marcescens A20019; assay type: cell-based; conditions: Serratia marcescens, A20019, Serratia marcescens A20019; overnight 37° C.; read-out: Minimum Inhibitory Concentration (M.I.C.)
Description: as §1

Ent. cloacae A-9659 = assay: MIC, tube dilution, Enterobacter cloacae A9659; assay type: cell-based; conditions: Enterobacter cloacae, A9659, Enterobacter cloacae A9659; overnight 37° C.; read-out: Minimum Inhibitory Concentration (M.I.C.)
Description: as §1

Ent. cloacae A-9656 = assay: MIC, tube dilution, Enterobacter cloacae A9656; assay type: cell-based; conditions: overnight 37° C., read-out: Minimum Inhibitory Concentration (M.I.C.)
Description: as §1

Ps. aeruginosa A-9843A = assay: MIC, tube dilution, Pseudomonas aeruginosa A9843A; assay type: cell-based; conditions: Pseudomonas aeruginosa, A9843A, read-out: Minimum Inhibitory Concentration (M.I.C.), Pseudomonas aeruginosa A9843A; overnight 37° C.
Description: as §1

Ps. aeruginosa A-21213 = assay: MIC, tube dilution, Pseudomonas aeruginosa A21213; assay type: cell-based; conditions: overnight 37° C., read-out: Minimum Inhibitory Concentration (M.I.C.)
Description: as §1

Proteus rettgeri A21203 = assay: MIC, tube dilution, Proteus rettgeri A21203; assay type: cell-based; conditions: Providencia rettgeri, overnight 37° C., read-out: Minimum Inhibitory Concentration (M.I.C.)
Description: as §1

Proteus vulgaris A21559 = assay: MIC, tube dilution, Proteus vulgaris A21559; assay type: cell-based; conditions: Proteus vulgaris
Description: as §1

[5] = Staph. aureus A9606 (Pen-Res), read-out: Minimum Inhibitory Concentration (M.I.C.)
[6] = Staph. aureus A15097 (Meth-Res), read-out: Minimum Inhibitory Concentration (M.I.C.)
[7] = Escherichia coli, A203411, E. coli A20341-1; overnight 37° C.; read-out: Minimum Inhibitory Concentration (M.I.C.)
[8] = Enterobacter cloacae, A9656, Enterobacter cloacae A9656
[9] = Pseudomonas aeruginosa, A21213, Pseudomonas aeruginosa A21213
[10] = A21203, Proteus rettgeri A21203
[11] = A21559, Proteus vulgaris A21559, overnight 37° C., read-out: Minimum Inhibitory Concentration (M.I.C.)

SMILES	MIC (Str. pneumoniae A-9585) [µg/mL]	MIC (Str. pyogenes A-9604) [µg/mL]	MIC (Staph. aureus A-9537) [µg/mL]	MIC [1] [µg/mL]	MIC [2, 5] [µg/mL]	MIC [3, 6] [µg/mL]	MIC (Str. faecalis A-20688) [µg/mL]	MIC (E. coli A-15119) [µg/mL]	MIC (E. coli A-20341-1; [7]) [µg/mL]	MIC (K. pneumoniae A-15130) [µg/mL]	MIC [4] [µg/mL]	MIC (Pr. mirabilis A-9900) [µg/mL]	MIC (Pr. morganii A-15153) [µg/mL]	MIC (Ser. marcescens A-20019) [µg/mL]	MIC (Ent. cloacae A-9659) [µg/mL]	MIC (Ent. cloacae A-9656; [8]) [µg/mL]	MIC (Ps. aeruginosa A-9843A) [µg/mL]	MIC (Ps. aeruginosa A-21213; [9]) [µg/mL]	MIC (Proteus rettgeri A21203; [10]) [µg/mL]	MIC (Proteus vulgaris A21559; [11]) [µg/mL]	also measured
NC=NCC1=C(C(=O)O)N2C(=O)CC2S1 (centres unmarked) [16 (6)]	2 (≈ 8.8 µM)	4 (≈ 17.6 µM)	4 (≈ 17.6 µM)	63	125 (≈ 550 µM)	63 (≈ 277 µM)	125 (≈ 550 µM)	16 (≈ 70.4 µM)	125 (≈ 550 µM)	125 (≈ 550 µM)	> 125	16 (≈ 70.4 µM)	32 (≈ 141 µM)	63 (≈ 277 µM)	63 (≈ 277 µM)	63 (≈ 277 µM)	32 (≈ 141 µM)	> 125	32 (≈ 141 µM)	32 (≈ 141 µM)	
CC1=C(C(=O)O)N2C(=O)[C@H]([C@H](C)O)[C@H]2S1 (relative stereo) [Example 59, (1'S,5R,6S and 1'R,5S,6R) 6-(1'-Hydroxy-1'-ethyl)-2-methyl penem-3-carboxylic acid (isomer C)]	32 (≈ 140 µM)	125 (≈ 545 µM)	> 125	> 63			> 125	> 125		> 125	> 125	> 125	> 125	> 125	> 125		> 125				MIC ([2]; read-out: Minimum Inhibitory Concentration (M.I.C.), Staph. aureus A9606 (Pen-Res)): > 125 µg/mL; MIC ([3]; read-out: Minimum Inhibitory Concentration (M.I.C.), Staph. aureus A15097 (Meth-Res)): > 125 µg/mL; MIC (E. coli A-20341-1; Escherichia coli, A203411; E. coli A20341-1; overnight 37° C.; read-out: Minimum Inhibitory Concentration (M.I.C.)): > 125 µg/mL; MIC (Ent. cloacae A-9656; Enterobacter cloacae A9656): > 125 µg/mL; MIC (Ps. aeruginosa A-21213; Pseudomonas aeruginosa A21213): > 125 µg/mL; MIC (Proteus rettgeri A21203; Proteus rettgeri A21203): > 125 µg/mL; MIC (Proteus vulgaris A21559; A21559, read-out: Minimum Inhibitory Concentration (M.I.C.)): > 125 µg/mL
N=C(Cc1ccccc1)NCC1=C(C(=O)O)N2C(=O)CC2S1 (centres unmarked) [Example 107]	0.5 (≈ 1.58 µM)	0.5 (≈ 1.58 µM)	0.5 (≈ 1.58 µM)	16	32 (≈ 101 µM)	> 63	> 63	63 (≈ 199 µM)	> 63	> 63	> 63	63 (≈ 199 µM)	63 (≈ 199 µM)	63 (≈ 199 µM)	> 63	63 (≈ 199 µM)	63 (≈ 199 µM)	63 (≈ 199 µM)	63 (≈ 199 µM)	63 (≈ 199 µM)	
NCC[S+]([O-])CC1=C(C(=O)O)N2C(=O)C[C@H]2S1 (some centres unmarked) [Example 101, 2-(2-Aminoethylsulfinylmethyl) penem-3-carboxylic Acid]	0.5 (≈ 1.81 µM)	0.5 (≈ 1.81 µM)	0.5 (≈ 1.81 µM)	4	4 (≈ 14.5 µM)	63 (≈ 228 µM)	> 63	8 (≈ 28.9 µM)	32 (≈ 116 µM)	32 (≈ 116 µM)	> 63	8 (≈ 28.9 µM)	16 (≈ 57.9 µM)	32 (≈ 116 µM)	32 (≈ 116 µM)	63 (≈ 228 µM)	63 (≈ 228 µM)	63 (≈ 228 µM)	16 (≈ 57.9 µM)	16 (≈ 57.9 µM)	
